According to US20080081039A1, “Inorganic Selenium For Treatment Of Cancer” (priority 2004, published 2008):

Assays:
[1] = test system: DU145 prostate cancer cells; conditions: cited from earlier work
Akt = assay: Activation of Akt by different selenium compounds in PC-3 cells, immunoblot; assay type: cell-based, human; conditions: 125 μM, 6 hours, serum starved PC-3 cells
Source text: Signal intensities from the developed films were scanned and intensities of active Akt correlated to total Akt levels were plotted.

PC-3 cells = assay: MTT growth assay; assay type: cell-based, human; conditions: 0.25 and 0.5 mM, 72 hour
Protocol: MTT Growth Assays involved plating 1×10^3 PC-3 cells per well in a 96 well plate and allowing the cells to attach overnight. […] The controls for this experiment received an equal volume of LY294002 diluent (DMSO). MTT growth assays were then performed according to the manufacturer's protocol (Sigma).

[2] = test system: cell cycle regulatory proteins (cyclin D1, cdk4, cdk6, p27KIP1, p21CIP1); assay: Immunoblot of cell cycle regulatory proteins in PC-3 cells; assay type: cell-based, human; conditions: 0.5 mM, compared to control (0 hours), FIG. 3C
Source text: The following antibodies were obtained from Cell Signaling Technology (Beverly, Mass., USA) unless otherwise stated: anti-p27^KIP1 (bd Pharmingen), anti-p21^CIP1 , ANTI-CYCLIN d1, ANTI-CYCLIN d3, ANTI-CDK4, ANTI-CDK6, ANTI-PHOSPHO rb (Ser807/811), anti-RB, anti-phospho Akt (Ser473), anti-phospho Akt (Thre308), anti-Akt, anti-phospho PDK1 (Ser241), anti-phospho PDK1 (Tyr373/376), anti-phospho GSK-3β, anti-phospho mTOR (Ser2448), anti-mTOR, anti-βIII tubulin (Promega).
To determine the effect of selenate on the phosphorylation of proteins involved in the PI3K/Akt signaling cascade, 5×10^5 PC-3 cells were allowed to attach for 10 hours. […] Cells were lysed in ELB (250 mM NaCl, 50 mM HEPES pH 7.0, 5 mM EDTA, 0.5 mM DTT, 0.2% TX100, 20 mM sodium fluoride, 2 mM sodium pervanadate, Complete Protease Inhibitor Cocktail (Roche)). Lysates were centrifuged for 15 minutes at 4° C. Protein concentration was determined using the BCA system (Sigma) and equal amounts of protein were loaded into each lane of a SDS-polyacrylamide gel. The proteins were transferred onto PVDF (Millipore) membranes and detected with anti-mouse or anti-rabbit secondary antibodies couples to horseradish peroxidase (HRP) and chemiluminescence using the SuperSignal West Dura (Pierce). Membranes were stripped using the Restore Western Blot Stripping Buffer (Pierce).

GFP-FKHR fusion protein = assay: GFP-FKHR cellular localization in transfected PC-3 cells; assay type: cell-based, human; conditions: LY294002 50 μM 1 hour; sodium selenate or selenomethionine 0.5 mM 3 hours
Protocol: The day before transfection, 5×10^5 PC-3 cells were seeded in 24-well dishes and transiently transfected with 0.8 μg of pcDNA3-GFP-FKHRwt construct (kind gift Dr Bill Sellers, Dana-Farber Institute, Boston) using Lipofectamine 2000 (Invitrogen). Cells were permeabilized in 0.2% Triton X-100 and the nuclear contents stained with DAPI. Coverslips were mounted with fluorescent mounting medium (DAKO). The cellular distribution of green fluorescence was determined in dual fluorescent cells using a Leica epifluorescent microscope.
Reintroducing PTEN function in such cells induces translocation of FKHR to the nucleus eventually causing G1 arrest in PTEN-null cells (Nakamura et al 2000, supra).

[3] = test system: human prostate cancer PC-3 cells; assay: Cell toxicity by Trypan Blue Exclusion, selenate versus selenite; conditions: 5 μM or 50 μM, 24 to 96 hours
Protocol: 5×10^3 human prostate cancer PC-3 cells were seeded in a 24-well dish and 8 hours later were treated with either 5 μM or 50 μM of selenate or selenite. The dose range of 5 μM or 50 μM is equivalent to 0.1 mg/kg to 1.25 mg/kg. Cells were harvested at 24, 48, 72 and 96 hours following the addition of selenate or selenite and the percentage of viable cells as assessed by Trypan Blue staining was determined.
All cells in the tissue culture wells were then harvested sequentially at periods between 24 and 96 hours following addition of the treatments. The percentage of viable cells were then determined using the Trypan Blue exclusion assay.

β-tubulin = β-tubulin levels in treated PC-3 cell lysates; assay type: cell-based, human
Histone H2A.X = conditions: 500 μM
Protocol: 5×10^5 PC-3 cells were plated in a 6 well dish and 24 hours later cells were treated with paclitaxel at 1 μg/mL or 10 μg/mL or selenate 500 μM (19 mg/kg) or selenite 500 μM (18 mg/kg) for the indicated times. Cells were then washed in PBS, lysed in ELB lysis buffer and whole cell lysates run on a SDS-PAGE gel and blotted and probed with the indicated antibodies. Phosphorylation of Histone H2AX occurs within minutes of DNA damage, typically via DNA double or single strand breaks and is a very sensitive readout of DNA damage.
To ascertain the differences between selenate, selenite and the taxane, paclitaxel in inducing DNA damage PC-3 cells were treated with these compounds for increasing time periods then lysed. The protein extracts were probed for phosphorylation of Histone H2A.X using a phosphorylation specific antibody.

[4] = at certain doses; cited from earlier work

## C[Se](=O)O [Methylseleninic acid]
[1]; 3 μM
  apoptosis and phosphorylation of Akt in DU-145 cells: not associated with apoptosis or with decreased phosphorylation of Akt
[1]
  G1 arrest and apoptosis markers in DU145 cells: induces G1 arrest, as well as DNA fragmentation and caspase mediated cleavage of PARP
[1]; doses as low as 3 μM
  G1 arrest of DU-145 cells: induced G1 arrest
[1]; higher doses of 5 μM
  Akt activation in DU-145 cells: dose-dependent decline in Akt activation
  apoptosis in DU-145 cells: initiation of caspase-mediated apoptosis

## N[C@@H](C[SeH])C(=O)O [Selenocysteine]
Akt
  activation of Akt (phosphorylated Akt relative to total Akt): induce activation of Akt above control (con) levels

## O=[Se](O)O [Selenous acid]
Akt
  activation of Akt (phosphorylated Akt relative to total Akt): induce activation of Akt above control (con) levels

## O=[Se]=O [selenium dioxide]
Akt
  activation of Akt (phosphorylated Akt relative to total Akt): induce activation of Akt above control (con) levels

## S=[Se]=S [selenium sulfide]
Akt
  activation of Akt (phosphorylated Akt relative to total Akt): induce activation of Akt above control (con) levels

## C[Se]CC[C@H](N)C(=O)O [selenomethionine, reference compound]
PC-3 cells
  PC-3 cell proliferation (MTT proliferative index): less effective in reducing cell proliferation
[2]
  p27KIP1 total protein levels, inorganic versus organic selenium: little effect
GFP-FKHR fusion protein
  relocalization of GFP-FKHR from the cytoplasm to the nucleus: unable to induce relocalization

## O=[Se](O)O [sodium selenite]
[3]
  cytotoxic effect (Trypan Blue exclusion): cytotoxic effect
β-tubulin; 100 μM, 250 μM or 500 μM, 16 hours
  cellular tubulin degradation: marked degradation
β-tubulin; 500 μM, increasing time periods
  β-tubulin levels: concomitant decrease in β-tubulin levels
Histone H2A.X
  time of treatment to DNA damage: ≤ 30 min
[4]
  toxicity to cells: toxic to cells
